Measurements from patent US11630110B2, “Methods to identify protein interaction” (AGENCY FOR SCIENCE, TECHNOLOGY AND RESEARCH, priority 2017, dated 2023).

Assays:
K562 cells = assay: DNA content analysis by FACS of propidium iodide staining; type: cell-based; details: 20 μM methotrexate, 48 hours, vs DMSO, FIG. 34
NF-kβ signaling pathway = assay: Western blotting of NFκB signalling pathway members; type: cell-based; details: K562 cells, 20 μM methotrexate 48 hours, presence and absence of TNF; FIG. 16A
Protocol: Cells were washed with DPBS (without calcium and magnesium) once, then lysed in TOTEX Buffer (20 mM Hepes at pH 7.9, 0.35M NaCl, 20% Glycerol, 1% NP-40, 1 mM MgCl2, 0.1 mM EGTA) including 50 mM NaF, 0.3 mM […] and protease inhibitor cocktail. Supernatant including proteins was collected, followed by centrifugation at full speed for 20 minutes. Western blotting was performed by following standard procedures using the following antibodies: Rabbit Anti-phospho-IKKα/β (S180/181) (1:1,000; Bioworld Technology, BS5082), Rabbit Anti-phospho-IKBα (S32) (1:1,000; Cell Signalling Technology, 2859), Rabbit Anti-IKBα (1:1,000; Santa Cruz Biotechnology, sc-371), Rabbit Anti-phospho-p65 ([…]) (1:1,000; Cell Signalling Technology, 3031), Mouse Anti-HSP90 (1:1,000; BD, 610419), Goat Anti-Rabbit IgG-HRP (1:5,000; Santa Cruz Biotechnology, sc-2054) and Goat Anti-Mouse IgG-HRP (1:5,000; Santa Cruz Biotechnology, sc-2005).

CN(Cc1cnc2nc(N)nc(N)c2n1)c1ccc(C(=O)N[C@@H](CCC(=O)O)C(=O)O)cc1 [methotrexate]
cell cycle state of K562 cells (K562 cells): arrested in the S phase | activation of the NF-kβ signaling pathway (NF-kβ signaling pathway): suppressing activation | phosphorylation of IKKα/β complex, IκBα and p65 (NF-kβ signaling pathway): inhibiting phosphorylation
